Here are results for one compound from article PMC5054060, “Probing the nucleotide-binding activity of a redox sensor: two-component regulatory control in chloroplasts” (Photosynthesis Research, 2016).

The test has as its target T1, CSK_T (truncated Arabidopsis CSK, amino acids 301 to 611) (Arabidopsis thaliana, UniProt F4HVG8).
T1 sequence (F4HVG8 301-611): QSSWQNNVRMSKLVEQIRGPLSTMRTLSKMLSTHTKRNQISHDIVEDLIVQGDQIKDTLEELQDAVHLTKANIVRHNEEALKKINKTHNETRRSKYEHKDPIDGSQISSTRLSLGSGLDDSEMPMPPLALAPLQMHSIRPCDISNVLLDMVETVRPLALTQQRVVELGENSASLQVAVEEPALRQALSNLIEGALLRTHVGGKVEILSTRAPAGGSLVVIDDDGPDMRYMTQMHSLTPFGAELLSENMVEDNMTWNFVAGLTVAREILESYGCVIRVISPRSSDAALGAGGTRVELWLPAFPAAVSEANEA
The test is described as follows: displacement of TNP-ATP fluorescence, […] nm. Particulars: 10 mM NaCl, 10 mM Tris-HCl pH 8; 1 µM TNP-ATP; 2 µM protein (figure legend: 1 µM); competitive displacement, no metal added; read-out: Binding affinity / ATP (mm).

As to `Nc1ncnc2c1ncn2[C@@H]1O[C@H](COP(=O)(O)OP(=O)(O)OP(=O)(O)O)[C@@H](O)[C@H]1O` [ATP], the Kd stood at 4.97 mM.
